Measurements published in patent US12104192B2, “Method of preparing primary amines from amino acids using enzymatic conversion” (KOREA ADVANCED INSTITUTE OF SCIENCE AND TECHNOLOGY, priority 2020, dated 2024).

test system: valine decarboxylase; experiment: Enzymatic activity assay of purified valine decarboxylase with amino acid substrates, HPLC detection of primary amine; format: biochemical, Streptomyces viridifaciens; conditions: 1 mM amino acid, 0.1 mM PLP, 150 μg purified his-tagged enzyme, 50 mM potassium phosphate buffer pH 7.5, 37° C., 2 hours
Procedure: An enzymatic activity assay was performed using a 50 mM potassium phosphate buffer (pH 7.5), and the substrate and enzyme used for the assay were added in the following amounts to the enzyme reaction solution.
Amino acids used as substrates were used at a concentration of 1 mM, and the amino acids used herein were L-alanine, L-2-aminobutyrate, 2-aminoisobutyrate, L-norvaline, L-valine, L-isovaline, L-norleucine, L-leucine, L-isoleucine, 1-aminocyclopentanecarboxylic acid, 1-aminocyclohexanecarboxylic acid, and L-2-phenylglycine. 0.1 mM pyridoxal phosphate (PLP) and 150 μg of the purified valine decarboxylase were added, followed by conducting reaction at 37° C. for 2 hours, and the sample after the reaction was analyzed by HPLC to identify primary amine.
Primary amine production was analyzed using HPLC (1100 Series HPLC; Agilent Technologies, Santa Clara, CA). The primary amine derivatization for analysis was performed in an automatic manner before analysis using an o-phthaldialdehyde (OPA; Sigma, St. Louis, MO) reagent. The OPA reagent for derivatization was prepared by dissolving 0.20 g of OPA reagent in 9.0 mL of methanol and then adding 1.0 mL of 0.40 M (pH 9.0) borate buffer and 160 μL of 2-mercaptoethanol thereto. For derivatization, 1 μL of the sample was mixed with 5 μL of 0.40 M (pH 9.0) borate buffer. Then, 1 μL of the OPA reagent for derivatization prepared above was added thereto, followed by HPLC analysis. Analysis was performed at 25° C. using an Eclipse plus C18 column (4.6×150 mm; Agilent Technologies). Solvent A for analysis was prepared by mixing 1.4 g/L of Na2HPO4 and 3.8 g/L of Na2B4O7·10H2O with 8 mg/L of NaN3, and adjusting the final pH of the resulting mixture to 7.2 using HCl. Solvent B was prepared by mixing 45% acetonitrile and 45% methanol with 10% H2O based on volume %. The solvent was fed at a rate of 2 mL/min. […] The derivatized secondary amines could be analyzed by detecting light with a wavelength of 230 nm using a variable wavelength detector (G1314A; Agilent Technologies).

Conversion of the amino acid substrate to the corresponding primary amine by valine decarboxylase, successfully converted:
CCCC[C@H](N)C(=O)O [L-norleucine]
CCC[C@H](N)C(=O)O [L-norvaline]
NC1(C(=O)O)CCCCC1 [1-aminocyclohexanecarboxylic acid]
CC(C)[C@H](N)C(=O)O [L-valine]
NC1(C(=O)O)CCCC1 [1-aminocyclopentanecarboxylic acid]
C[C@H](N)C(=O)O [L-alanine]
CC(C)C[C@H](N)C(=O)O [L-leucine]
N[C@H](C(=O)O)c1ccccc1 [L-2-phenylglycine]
CC(C)(N)C(=O)O [2-aminobutyrate, 2-aminoisobutyrate]
CC[C@](C)(N)C(=O)O [L-isovaline]
L-2-aminobutyrate
CC[C@H](C)[C@H](N)C(=O)O [L-isoleucine]
